The source made the active and inactive calls. No rule for the calls is given here.
Each compound was assayed on Broad 7084-01 inhibitor HTS, set 2 (assay: single-concentration hits, screen 7084 set 2 (AID 977613);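 also: host cells are infected with parasite promastigotes that become internalized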).

| Structure (SMILES) | active concentration |
| --- | --- |
| Cc1ccccc1-c1ccc([C@@H]2[C@@H](CO)N3CCCCN(S(=O)(=O)Cc4ccccc4)C[C@H]23)cc1 | > 10 µM (inactive) |
| O=C(C[C@@H]1CC[C@@H]2[C@H](COC[C@H](O)CN2C(=O)c2ccc(F)cc2)O1)NCc1cccc(F)c1 | > 10 µM (inactive) |
| CCCNC(=O)N1[C@H](CO)[C@H](c2ccccc2-c2ccc(C)cc2)[C@@H]1C#N | > 10 µM (inactive) |
| CN1C(=O)c2cc(NS(C)(=O)=O)ccc2OC[C@H]2O[C@@H](CC(=O)N3CCOCC3)CC[C@@H]21 | > 10 µM (inactive) |
| CN1c2ccc(C#Cc3cccnc3)cc2[C@H]2[C@H](CCN2C(=O)C2CCCCC2)[C@H]1CO | > 10 µM (inactive) |
| COc1ccc(-c2ccccc2[C@@H]2[C@@H](C#N)N(C(=O)NC3CCCCC3)[C@H]2CO)cc1 | > 10 µM (inactive) |
| CC=Cc1ccc2n(c1=O)C[C@H]1[C@H](CO)[C@@H](C(=O)Nc3ccc(-c4ccccc4)cc3)[C@@H]2N1C(=O)CC (mixture of isomers) | > 10 µM (inactive) |
| CC(=O)N1CC[C@@H]2[C@@H](CO)N(C)c3ccc(-c4ccc(C#N)cc4)cc3[C@@H]21 | > 10 µM (inactive) |
| CN1C(=O)c2cc(NC(=O)c3cccc(F)c3)ccc2OC[C@@H]2O[C@@H](CC(=O)NCC3CCCCC3)CC[C@H]21 | > 10 µM (inactive) |
| O=C(C[C@@H]1CC[C@@H]2[C@H](COC[C@H](O)CN2C(=O)Nc2cc(Cl)cc(Cl)c2)O1)NCC1CCCCC1 | > 10 µM (inactive) |
| O=C(c1cccc(F)c1)N1C[C@@H]2[C@H](c3ccccc31)[C@H](CO)N2C(=O)C1CCOCC1 | > 10 µM (inactive) |
| CCNC(=O)[C@H]1[C@H](CO)[C@H]2Cn3c(ccc(-c4ccccc4)c3=O)[C@H]2N1CC | > 10 µM (inactive) |
| CN(C)C(=O)C[C@@H]1CC[C@H]2[C@@H](COC[C@@H](O)CN2CC2CC2)O1 | > 10 µM (inactive) |
| O=C(C[C@H]1CC[C@@H]2[C@H](COC[C@H](O)CN2C(=O)C2CC2)O1)NCc1ccncc1 | > 10 µM (inactive) |
| CCCNC(=O)N1CC(=O)N2[C@H](CO)[C@@H](c3ccc(C#CCC4CCCC4)cc3)[C@H]2C1 | > 10 µM (inactive) |
| O=C(C[C@H]1CC[C@H]2[C@@H](COC[C@H](O)CN2S(=O)(=O)c2ccc(F)cc2)O1)NCC1CC1 | > 10 µM (inactive) |
| CN1C(=O)c2cc(NC(=O)C3CCOCC3)ccc2OC[C@H]2O[C@@H](CC(=O)NCC3CCCCC3)CC[C@H]21 | > 10 µM (inactive) |
| C/C=C/c1ccccc1[C@@H]1[C@@H](CO)N(C(=O)CN2CCOCC2)[C@H]1C#N | > 10 µM (inactive) |
| CC(C)NC(=O)N1C[C@@H]2[C@H](c3ccccc31)[C@@H](CO)N2Cc1ccccn1 | < 10 µM |
| COc1ccccc1CN1CC[C@@H]2[C@H](CO)Nc3ccc(C#Cc4ccccc4)cc3[C@@H]21 | > 10 µM (inactive) |
| COc1ccc(NC(=O)N2CC(=O)N3[C@H](C2)[C@@H](c2ccc(Br)cc2)[C@@H]3CO)cc1 | > 10 µM (inactive) |
| Cc1ccc(NC(=O)C[C@H]2CC[C@H]3[C@@H](COc4ccc(NC(=O)C5CCC5)cc4C(=O)N3C)O2)cc1 | > 10 µM (inactive) |
| COc1ccc2c3c(n(C)c2c1)[C@@H](CO)N(C(=O)C1CC1)CC31CN(Cc2ccccc2OC)C1 | > 10 µM (inactive) |
| O=C(C[C@@H]1CC[C@H]2[C@@H](COC[C@@H](O)CN2S(=O)(=O)c2ccc(F)cc2)O1)NCC1CC1 | > 10 µM (inactive) |

| Structure (SMILES) | active concentration |
| --- | --- |
| N#C[C@H]1[C@@H](c2ccccc2C2=CCCC2)[C@@H](CO)N1S(=O)(=O)c1ccccc1 | > 10 µM (inactive) |
| CN(C)CC(=O)N1CCCCN2[C@H](C1)[C@@H](c1ccc(/C=C/c3ccccc3)cc1)[C@@H]2CO | > 10 µM (inactive) |
| CCN1CC(=O)N2[C@H](CO)[C@H](c3ccc(Br)cc3)[C@@H]2C1 | > 10 µM (inactive) |
| N#C[C@H]1[C@@H](c2ccccc2-c2cccc(F)c2)[C@@H](CO)N1C(=O)CN1CCOCC1 | > 10 µM (inactive) |
| N#C[C@H]1[C@@H](c2ccccc2-c2ccccc2F)[C@@H](CO)N1C(=O)Cc1ccccc1 | > 10 µM (inactive) |
| COC(=O)[C@@H]1[C@@H](CO)[C@@H]2Cn3c(cccc3=O)[C@@H]2N1CC1CCOCC1 | > 10 µM (inactive) |
| CN(C)C(=O)c1cccc(-c2ccc([C@H]3[C@H]4CN(CC5CCOCC5)CCCCN4[C@H]3CO)cc2)c1 | > 10 µM (inactive) |
| CN1[C@H](CO)[C@H]2c3ccccc3N(C(=O)Nc3ccccc3F)C[C@H]21 | > 10 µM (inactive) |
| OC[C@H]1[C@H]2c3ccccc3NC[C@H]2N1Cc1cccnc1 | > 10 µM (inactive) |
| CCCNC(=O)N1CC2(C1)CN(Cc1ccc(F)cc1)[C@H](CO)c1[nH]c3cc(OC)ccc3c12 | > 10 µM (inactive) |
| CCC(=O)N1CC(=O)N2[C@H](CO)[C@@H](c3ccc(-c4ccc(C#N)cc4)cc3)[C@@H]2C1 | > 10 µM (inactive) |
| O=C(Cc1ccccn1)N1CC2(C1)[C@H](c1ccccc1)[C@@H](CO)N2C(=O)c1cccnc1 | > 10 µM (inactive) |
| O=C(c1ccccn1)N1C[C@@H]2[C@H](c3ccccc31)[C@H](CO)N2C(=O)Nc1ccccc1F | > 10 µM (inactive) |
| CS(=O)(=O)N1[C@@H]2c3ccc(C4=CCCC4)c(=O)n3C[C@@H]2[C@@H](CO)[C@@H]1C(=O)NCCc1ccncc1 | > 10 µM (inactive) |
| CS(=O)(=O)N1C[C@H](O)COC[C@@H]2O[C@H](CC(=O)NCc3ccc(-c4ccccc4)cc3)CC[C@H]21 | > 10 µM (inactive) |
| COc1ccc(NC(=O)N2CC(=O)N3[C@H](CO)[C@H](c4ccc(Br)cc4)[C@@H]3C2)cc1 | > 10 µM (inactive) |
| N#C[C@@H]1[C@H](c2ccccc2C2=CCCCC2)[C@H](CO)N1S(=O)(=O)c1cccc(F)c1 | > 10 µM (inactive) |
| C/C=C/c1ccc([C@@H]2[C@H]3CN(Cc4ccc(F)cc4)CC(=O)N3[C@H]2CO)cc1 | > 10 µM (inactive) |
| OC[C@H]1[C@H]2c3ccccc3NC[C@H]2N1Cc1ccccc1Cl | > 10 µM (inactive) |
| COc1ccc(NC(=O)N2CCCCN3[C@H](C2)[C@H](c2ccc(-c4ccccc4F)cc2)[C@@H]3CO)cc1 | > 10 µM (inactive) |
| COC(=O)C[C@@H]1CC[C@@H]2[C@@H](COc3ccc(NS(=O)(=O)c4ccccc4Cl)cc3C(=O)N2C)O1 | > 10 µM (inactive) |
| CC(=O)N1CC[C@H]2[C@@H]1c1cc(-c3ccc(C#N)cc3)ccc1N(C)[C@H]2CO | > 10 µM (inactive) |
| N#C[C@H]1[C@@H](c2ccccc2C2=CCCCC2)[C@H](CO)N1C(=O)C1CCOCC1 | > 10 µM (inactive) |
| CN1C(=O)c2cc(NC(=O)c3cccc(F)c3)ccc2OC[C@H]2O[C@@H](CC(=O)NCC3CCCCC3)CC[C@@H]21 | > 10 µM (inactive) |

| Structure (SMILES) | active concentration |
| --- | --- |
| O=C(C[C@H]1CC[C@H]2[C@@H](COC[C@H](O)CN2C(=O)Nc2cc(Cl)cc(Cl)c2)O1)NCC1CCCCC1 | > 10 µM (inactive) |
| OC[C@@H]1[C@H](c2ccc(Br)cc2)[C@H]2CN(Cc3ccccn3)CCCCN12 | > 10 µM (inactive) |
| O=S(=O)(c1ccccc1)N1CCCCN2[C@@H](CO)[C@@H](c3ccc(C#CC4CCCC4)cc3)[C@@H]2C1 | > 10 µM (inactive) |
| COc1ccc2c3c(n(C)c2c1)[C@@H](CO)N(CC1CCCC1)CC31CN(C(=O)Nc2ccccc2)C1 | > 10 µM (inactive) |
| CC(=O)N1CC[C@@H]2[C@H]1c1cc(-c3ccc(F)cc3)ccc1N[C@@H]2CO | > 10 µM (inactive) |
| O=C(C[C@H]1CC[C@H]2[C@@H](COC[C@H](O)CN2S(=O)(=O)c2cccc(Cl)c2)O1)Nc1ccc(-c2ccccc2)cc1 | > 10 µM (inactive) |
| CC=Cc1ccc2n(c1=O)C[C@H]1[C@H](CO)[C@@H](C(=O)NCC)[C@@H]2N1Cc1cccc(Cl)c1 (mixture of isomers) | > 10 µM (inactive) |
| COc1ccc2c3c(n(C)c2c1)[C@H](CO)N(S(=O)(=O)c1ccc(C)cc1)CC31CCN(C)CC1 | > 10 µM (inactive) |
| CN1c2ccc(Br)cc2[C@H]2[C@H](CCN2S(=O)(=O)c2cccc(F)c2)[C@@H]1CO | > 10 µM (inactive) |
| CN(C)CC(=O)N1CC2(C1)[C@@H](c1ccccc1)[C@@H](CO)N2C(=O)C1CC1 | > 10 µM (inactive) |
| CCCNC(=O)N1CC(=O)N2[C@H](C1)[C@@H](c1ccc(-c3ccc(F)cc3)cc1)[C@@H]2CO | > 10 µM (inactive) |
| C/C=C/c1ccccc1[C@@H]1[C@@H](CO)N(C(=O)Cc2ccccn2)[C@H]1C#N | > 10 µM (inactive) |
| COc1cccc(NC(=O)Nc2ccc3c(c2)C(=O)N(C)[C@@H]2CC[C@@H](CC(=O)NCCc4ccccc4)O[C@@H]2CO3)c1 | > 10 µM (inactive) |
| O=C(c1cccnc1)N1CC[C@@H]2[C@@H](CO)Nc3ccc(C4=CCCCC4)cc3[C@@H]21 | > 10 µM (inactive) |
| O=C(C[C@H]1CC[C@H]2[C@@H](COC[C@H](O)CN2C(=O)Cc2ccccc2)O1)NC1CCCC1 | > 10 µM (inactive) |
| Cc1cccc(S(=O)(=O)N2C[C@H](O)COC[C@@H]3O[C@H](CC(=O)Nc4ccccc4)CC[C@H]32)c1 | > 10 µM (inactive) |
| CC(=O)N1CC2(C1)[C@H](c1ccc(-c3cccc(C#N)c3)cc1)[C@H](CO)N2CCC(F)(F)F | > 10 µM (inactive) |
| CCCC#Cc1ccc([C@@H]2[C@H]3CN(S(=O)(=O)c4ccccc4C)CC(=O)N3[C@H]2CO)cc1 | > 10 µM (inactive) |
| O=C(Nc1ccc(F)cc1)N1CC(=O)N2[C@H](C1)[C@H](c1ccc(C#Cc3cccnc3)cc1)[C@@H]2CO | > 10 µM (inactive) |
| COc1ccc2c3c(n(C)c2c1)[C@@H](CO)N(CC1CCOCC1)CC31CN(Cc2nccs2)C1 | > 10 µM (inactive) |
| COc1ccc2c3c([nH]c2c1)[C@H](CO)N(C)CC31CCN(C(=O)c2ccccc2F)CC1 | > 10 µM (inactive) |
| COc1ccccc1CN1CC[C@@H]2[C@@H](CO)Nc3ccc(C#Cc4ccccc4)cc3[C@@H]21 | > 10 µM (inactive) |
| CCC(=O)N1CC2(CN(C(C)=O)C2)c2c([nH]c3cc(OC)ccc23)[C@@H]1CO | > 10 µM (inactive) |
